Measured values taken from patent US7838533B2, “Azaindole inhibitors of MTP and ApoB” (Merck Patent GmbH, priority 2004, dated 2010).

How the values were obtained:
[1] = biological target: T1, microsomal triglyceride transfer protein (MTP) (Mesocricetus auratus, UniProt P55158); assay: Inhibition of MTP activity: transfer of [3H]-triolein from donor liposomes to biotinylated LDL, SPA; type: biochemical; settings: MTP from golden hamster liver; incubation 18-24 hours at 37° C.
T1 construct: The supernatant comprising the soluble MTP is dialysed; from tissue; host or cells: golden hamster liver microsomes, deoxycholate-solubilised supernatant
T1 sequence (P55158 19-895): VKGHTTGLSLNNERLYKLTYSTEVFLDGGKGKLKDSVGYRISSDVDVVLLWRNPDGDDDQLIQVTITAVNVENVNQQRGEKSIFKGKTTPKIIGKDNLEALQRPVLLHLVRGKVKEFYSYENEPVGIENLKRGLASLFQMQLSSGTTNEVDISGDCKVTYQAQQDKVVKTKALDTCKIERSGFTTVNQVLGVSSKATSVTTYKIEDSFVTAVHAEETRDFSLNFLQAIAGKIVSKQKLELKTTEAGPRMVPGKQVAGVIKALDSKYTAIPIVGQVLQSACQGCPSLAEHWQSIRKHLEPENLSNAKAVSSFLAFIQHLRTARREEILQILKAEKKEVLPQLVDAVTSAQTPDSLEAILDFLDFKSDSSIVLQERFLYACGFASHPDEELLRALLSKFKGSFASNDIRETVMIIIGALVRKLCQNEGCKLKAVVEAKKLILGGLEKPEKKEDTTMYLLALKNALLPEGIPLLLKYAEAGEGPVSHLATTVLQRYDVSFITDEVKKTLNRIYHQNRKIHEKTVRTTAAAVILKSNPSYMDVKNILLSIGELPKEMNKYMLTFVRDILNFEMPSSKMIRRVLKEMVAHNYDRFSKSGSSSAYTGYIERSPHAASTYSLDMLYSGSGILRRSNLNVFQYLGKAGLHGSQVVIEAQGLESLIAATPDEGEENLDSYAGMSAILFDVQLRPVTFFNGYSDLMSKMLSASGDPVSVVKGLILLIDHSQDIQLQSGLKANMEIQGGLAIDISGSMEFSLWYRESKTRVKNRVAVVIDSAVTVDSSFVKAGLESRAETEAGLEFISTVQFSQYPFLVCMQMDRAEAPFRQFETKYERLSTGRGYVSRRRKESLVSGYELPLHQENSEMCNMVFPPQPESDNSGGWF
Description: The inhibition of the activity of microsomal triglyceride transfer protein (MTP) was tested by using the following operating protocol.
The inhibition of MTP activity with a compound can be quantified by observing the inhibition of the transfer of a labelled triglyceride, from a donor particle to an acceptor particle, in the presence of MTP. The procedure for the preparation of MTP is based on the method by Wetterau and Zilversmit (Biochem. Biophys. Acta (1986) 875, 610). A few grams of golden hamster liver are taken and then rinsed several times in a 250 mM sucrose solution at 0° C. All the following steps proceed at +4° C. A homogenate at a concentration of 50% in 250 mM sucrose is prepared using a Teflon mill and then centrifuged for 10 minutes at 10 000×g at +4° C. The supernatant is then centrifuged at 105 000×g for 75 minutes at +4° C. The supernatant is discarded and the microsomal pellet is taken up in 3 ml (per g of starting liver) of Tris/HCl 150 mM pH 8.0. 1-ml aliquot fractions are stored at −80° C. until the time of use.
After thawing a fraction of microsomes (1 ml), 12 ml of refrigerated Tris/HCl 50 mM, KCl 50 mM, MgCl2 5 mM pH 7.4 buffers and 1.2 ml of deoxycholate (0.54% in water) are added. After incubation for 30 minutes at +4° C. with gentle agitation, the suspension is centrifuged at […] for 75 minutes. […]
The reaction mixture is prepared in untreated ½ well white plates (Corning Costar) by addition, in the following order, of: 5 μl of HEPES 50 mM, NaCl 150 mM, BSA 0.1% (w/v), 0.05% sodium azide (w/v), pH 7.4 buffer; 5 μl of liposomes; 5 μl of LDL-biot; 5 μl of test products in DMSO; 5 μl of MTP. After incubation for 18-24 hours at 37° C., the reaction is stopped adding 100 μl of Amersham SPA (Scintillation Proximity Assay) beads coupled to streptavidin, and the radioactivity is counted using a Top Count (Packard) machine at least one hour later. The inhibition of the transfer of the triglycerides with a compound is reflected by a reduction in the transferred radioactivity. […]

[2] = test system: apo B secretion in HepG2 cells; assay: Inhibition of ApoB secretion in HepG2 cells, sandwich ELISA; type: cell-based; settings: 24 hours incubation, ELISA specific for human apo B
Description: The activity of a compound according to the invention can be evaluated by measuring the inhibition of apo B secretion in HepG2 cells.
The HepG2 cells (ECACC No. 85011430) are used as model in the study of the in vitro hepatic secretion of lipoproteins (Dixon J. and Ginsberg H., J. Lipid. Res., 1993, 34, 167-179).
The HepG2 cells are cultured in Dulbecco's modified Eagle's medium comprising 10% foetal calf serum (DMEM and FBS-Gibco) in 96-well plates under an atmosphere of 5% carbon dioxide for 24 hours (about 70% confluence).
The test compounds are dissolved at a concentration of 2 or 10 mM in dimethyl sulfoxide (DMSO). Serial dilutions (1:3.16) are made in DMSO and are added (1:200—Robot Multimek Beckman) to the growth medium (200 μL) and then finally incubated for 24 hours in the various wells containing the HepG2 cells.
The 24-hour culture supernatant diluted to 1:5 (phosphate-buffered saline: PBS comprising 1% bovine serum albumin) is tested according to a sandwich-ELISA method specific for human apo B.
The results are expressed in terms of IC50, i.e. the concentration that produces a 50% inhibition of apo B secretion in the HepG2 cells.

Compound	IC50 [1] [µM]	IC50 [2] [µM]
CS(=O)(=O)c1ccc(CNC(=O)C(CCCCn2cc(-c3ccccc3)c3cccnc32)C2CCCCC2)cc1 (stereo not drawn)	0.529	0.003
O=C(NCc1ccccc1)C(CCCCn1cc(-c2ccccc2)c2cccnc21)C1CCCCCC1 (stereo not drawn)	0.175	0.015
O=C(NCc1ccncc1)C(CCCCCn1cc(-c2ccccc2)c2cccnc21)C1CCCC1 (stereo not drawn)	0.381	0.018
